Assays:
[1] = system: human T cells from peripheral blood mononuclear cells; assay: Expansion of CMV pp65 reactive T cells from peripheral blood mononuclear cells; format: cell-based; details: for Expansion of T cells from PBMC, total cell number relative to IL-2 alone: day 11
Excerpt: At day eleven, cells were pooled and counted, and immunophenotyped at day 11 by flow cytometry by measuring expression of lineage (CD4, CD8) and differentiation (including CD45RA, CD45RO, CD95, CCR7, CD62L, TCF1, PD-1, TIM3, LAG3) markers.

[2] = system: human tumor-infiltrating lymphocytes (TIL); assay: Ex vivo expansion of TIL from human tumor fragments (pre-REP); format: cell-based; details: for Expansion of TIL, total cell number relative to IL-2 alone: day 17
Experimental: Samples of human ovarian and colon tumors were obtained from the Cooperative Human Tissue Network (CHTN, c/o Vanderbilt University Medical Center, Nashville, TN). Solid tumor specimens were carefully dissected free of surrounding fatty and necrotic areas. The tumors were sliced into 8 mm^3 (2×2×2 mm^3) fragments under sterile conditions using a scalpel and a scalpel holder.
The plates were placed in a humidified 37° C. incubator with 5% CO2. Half of the medium was replaced every two days after culture initiation. […] Subsequently, half the media was replaced thrice weekly, cultures were split to maintain a cell density of 1×10^6 cells/mL. […] Mitochondrial markers including, Mitotracker, Mitoprobe, and 2-NBDG may also be used to assess differentiation and/or activation of cells.

TIL = assay: Cytokine and chemokine secretion of expanded TIL (Luminex); format: cell-based, human
Experimental: Also assessed were cytokines and chemokines secreted during the 14 day expansion in GREX.
Supernatants were assessed by Luminex.

CD8+ and CD4+ TIL = assay: CD107a and granzyme B in TIL after anti-CD3/CD28 stimulation; format: cell-based, human
Experimental: In the context of cytotoxicity, granzyme B (Grb), a protease secreted to mediate apoptosis, was assessed.

OT-1 cells = assay: Tumor re-challenge of long term survivors 149 days after OT-1 transfer; format: in vivo, mouse
Excerpt: To determine whether OT-1 cells are capable of long-term tumor protection, the long term survivors of the above experiment (FIG. 12) were re-challenged with a lethal dose of E.G7-OVA tumor cells 149 days after the initial adoptive transfer of the in vitro expanded OT-1 cells. Re-challenge induced OT-1 cell expansion at the site engrafted with E.G7-OVA tumor cells expressing ovalbumin antigen, thereby effectively controlling tumor growth (FIG. 21).

breast TIL = assay: CDR3 diversity of expanded breast TIL (iRepertoire sequencing); format: cell-based, human; details: compound 103 alone or with high dose IL-2; 14 days in GREX10
Experimental: TIL were cultured for 14 days in GREX10. […] The raw data were analyzed by iRepertoire using IRmap programs with a modified Smith-Waterman algorithm. Using CDR3 algerbra software, the calculation of shared CDR3s across samples with the indicated treatment was assessed. […] All CDR3 frequencies were scaled to 10 million reads to account for differences in read depth among samples. Data was normalized so that each uCDR3-VDJ combination was treated as a quantity of 1 regardless of read count, and then analyzed for V usage and J usage.

[3] = Cbl inhibitor in the absence of IL-2
[4] = IL-2 + compound 103, upon stimulation
[5] = expanded with IL2 + compound 103, anti-CD3/CD28 6 hours

C[C@@H]1CN(Cc2cc3c(c(C(F)(F)F)c2)CN(c2cccc(C4(Cc5nncn5C)COC4)c2)C3=O)CCC1(F)F [compound 103]
Expansion of T cells [1, 3]: considerable expansion of T cells | Expansion of T cells from PBMC, total cell number relative to IL-2 alone ([1]; Donor 1, 0.1 μM Cbl-i): 12% | Expansion of T cells from PBMC, total cell number relative to IL-2 alone ([1]; Donor 1, 1.0 μM Cbl-i): 12% | Expansion of T cells from PBMC, total cell number relative to IL-2 alone ([1]; Donor 1, 10 μM Cbl-i): 44% | Expansion of T cells from PBMC, total cell number relative to IL-2 alone ([1]; Donor 1, IL-2 + 0.1 μM Cbl-i): 614% | Expansion of T cells from PBMC, total cell number relative to IL-2 alone ([1]; Donor 1, IL-2 + 1.0 μM Cbl-i): 1007% | Expansion of T cells from PBMC, total cell number relative to IL-2 alone ([1]; Donor 1, IL-2 + 10 μM Cbl-i): 898% | Expansion of T cells from PBMC, total cell number relative to IL-2 alone ([1]; Donor 2, 0.1 μM Cbl-i): 70% | Expansion of T cells from PBMC, total cell number relative to IL-2 alone ([1]; Donor 2, 1.0 μM Cbl-i): 95% | Expansion of T cells from PBMC, total cell number relative to IL-2 alone ([1]; Donor 2, 10 μM Cbl-i): 45% | Expansion of T cells from PBMC, total cell number relative to IL-2 alone ([1]; Donor 2, IL-2 + 0.1 μM Cbl-i): 2059% | Expansion of T cells from PBMC, total cell number relative to IL-2 alone ([1]; Donor 2, IL-2 + 1.0 μM Cbl-i): 170% | Expansion of T cells from PBMC, total cell number relative to IL-2 alone ([1]; Donor 2, IL-2 + 10 μM Cbl-i): 2161% | Expansion of T cells from PBMC, total cell number relative to IL-2 alone ([1]; Donor 3, 0.1 μM Cbl-i): 175% | Expansion of T cells from PBMC, total cell number relative to IL-2 alone ([1]; Donor 3, 1.0 μM Cbl-i): 75% | Expansion of T cells from PBMC, total cell number relative to IL-2 alone ([1]; Donor 3, 10 μM Cbl-i): 38% | Expansion of T cells from PBMC, total cell number relative to IL-2 alone ([1]; Donor 3, IL-2 + 0.1 μM Cbl-i): 3622% | Expansion of T cells from PBMC, total cell number relative to IL-2 alone ([1]; Donor 3, IL-2 + 1.0 μM Cbl-i): 2145% | Expansion of T cells from PBMC, total cell number relative to IL-2 alone ([1]; Donor 3, IL-2 + 10 μM Cbl-i): 1151% | Expansion of TIL [2, 3]: considerable expansion of TIL | Expansion of TIL, total cell number relative to IL-2 alone ([2]; TIL1 (ovary), 0.1 μM Cbl-i): 90% | Expansion of TIL, total cell number relative to IL-2 alone ([2]; TIL1 (ovary), 1.0 μM Cbl-i): 75% | Expansion of TIL, total cell number relative to IL-2 alone ([2]; TIL1 (ovary), 10 μM Cbl-i): 60% | Expansion of TIL, total cell number relative to IL-2 alone ([2]; TIL1 (ovary), IL-2 + 0.1 μM Cbl-i): 300% | Expansion of TIL, total cell number relative to IL-2 alone ([2]; TIL1 (ovary), IL-2 + 1.0 μM Cbl-i): 450% | Expansion of TIL, total cell number relative to IL-2 alone ([2]; TIL1 (ovary), IL-2 + 10 μM Cbl-i): 450% | Expansion of TIL, total cell number relative to IL-2 alone ([2]; TIL2 (ovary), 0.1 μM Cbl-i): 30% | Expansion of TIL, total cell number relative to IL-2 alone ([2]; TIL2 (ovary), 1.0 μM Cbl-i): 26% | Expansion of TIL, total cell number relative to IL-2 alone ([2]; TIL2 (ovary), 10 μM Cbl-i): 22% | Expansion of TIL, total cell number relative to IL-2 alone ([2]; TIL2 (ovary), IL-2 + 0.1 μM Cbl-i): 49% | Expansion of TIL, total cell number relative to IL-2 alone ([2]; TIL2 (ovary), IL-2 + 1.0 μM Cbl-i): 86% | Expansion of TIL, total cell number relative to IL-2 alone ([2]; TIL2 (ovary), IL-2 + 10 μM Cbl-i): 49% | Expansion of TIL, total cell number relative to IL-2 alone ([2]; TIL3 (ovary), 0.1 μM Cbl-i): 30% | Expansion of TIL, total cell number relative to IL-2 alone ([2]; TIL3 (ovary), 1.0 μM Cbl-i): 43% | Expansion of TIL, total cell number relative to IL-2 alone ([2]; TIL3 (ovary), 10 μM Cbl-i): 16% | Expansion of TIL, total cell number relative to IL-2 alone ([2]; TIL3 (ovary), IL-2 + 0.1 μM Cbl-i): 103% | Expansion of TIL, total cell number relative to IL-2 alone ([2]; TIL3 (ovary), IL-2 + 1.0 μM Cbl-i): 114% | Expansion of TIL, total cell number relative to IL-2 alone ([2]; TIL3 (ovary), IL-2 + 10 μM Cbl-i): 110% | Expansion of TIL, total cell number relative to IL-2 alone ([2]; TIL4 (colon), 0.1 μM Cbl-i): 45% | Expansion of TIL, total cell number relative to IL-2 alone ([2]; TIL4 (colon), 1.0 μM Cbl-i): 58% | Expansion of TIL, total cell number relative to IL-2 alone ([2]; TIL4 (colon), 10 μM Cbl-i): 54% | Expansion of TIL, total cell number relative to IL-2 alone ([2]; TIL4 (colon), IL-2 + 0.1 μM Cbl-i): 113% | Expansion of TIL, total cell number relative to IL-2 alone ([2]; TIL4 (colon), IL-2 + 1.0 μM Cbl-i): 197% | Expansion of TIL, total cell number relative to IL-2 alone ([2]; TIL4 (colon), IL-2 + 10 μM Cbl-i): 170% | Expansion of TIL, total cell number relative to IL-2 alone ([2]; TIL5 (ovary), 0.1 μM Cbl-i): 50% | Expansion of TIL, total cell number relative to IL-2 alone ([2]; TIL5 (ovary), 1.0 μM Cbl-i): 70% | Expansion of TIL, total cell number relative to IL-2 alone ([2]; TIL5 (ovary), 10 μM Cbl-i): 90% | Expansion of TIL, total cell number relative to IL-2 alone ([2]; TIL5 (ovary), IL-2 + 0.1 μM Cbl-i): 20% | Expansion of TIL, total cell number relative to IL-2 alone ([2]; TIL5 (ovary), IL-2 + 1.0 μM Cbl-i): 10% | Expansion of TIL, total cell number relative to IL-2 alone ([2]; TIL5 (ovary), IL-2 + 10 μM Cbl-i): 20% | Expansion of TIL, total cell number relative to IL-2 alone ([2]; TIL6 (ovary), 0.1 μM Cbl-i): 93% | Expansion of TIL, total cell number relative to IL-2 alone ([2]; TIL6 (ovary), 1.0 μM Cbl-i): 87% | Expansion of TIL, total cell number relative to IL-2 alone ([2]; TIL6 (ovary), 10 μM Cbl-i): 80% | Expansion of TIL, total cell number relative to IL-2 alone ([2]; TIL6 (ovary), IL-2 + 0.1 μM Cbl-i): 280% | Expansion of TIL, total cell number relative to IL-2 alone ([2]; TIL6 (ovary), IL-2 + 1.0 μM Cbl-i): 260% | Expansion of TIL, total cell number relative to IL-2 alone ([2]; TIL6 (ovary), IL-2 + 10 μM Cbl-i): 240% | Production of TIL vs IL-2 or Cbl inhibitor alone ([2]; both IL-2 and Cbl inhibitor, TIL1 and TIL4): substantially more TIL | GMCSF, MIP1α, MIP1β and IP10 secreted during 14 day expansion in GREX (TIL; IL-2 + compound 103): trending increases | IFN-γ secreted during 14 day expansion in GREX (TIL; IL-2 + compound 103): significant increase of IFN-γ | Secretion of IL-2, IL-5, IL-7, IL-21, IL-23, TNF-α, and IFN-γ upon stimulation (TIL; high dose IL-2 + 1 μM compound 103, 24 hours): significant secretion | Secretion of MIP1α and MIP1β upon stimulation (TIL; high dose IL-2 + 1 μM compound 103, anti-CD3/CD28 24 hours): significant increases in secretion | CD107A+GRB+ cells (CD8+ and CD4+ TIL; [4]): significant increase | Granzyme B (Grb) produced in TIL vs IL-2 alone (CD8+ and CD4+ TIL; [4]): significant increase of Grb | CD4+ TIL capable of producing CD107a (CD8+ and CD4+ TIL; [5]): greater than 60% | CD8+ TIL capable of producing CD107a (CD8+ and CD4+ TIL; [5]): greater than 60% | Number of OT-1 cells in blood (in vivo persistence) (OT-1 cells; 149 days after transfer, expanded with Cbl inhibitor or Cbl inhibitor plus IL-2): present at a higher number in the blood | Recall response after tumor re-challenge vs IL-2 alone (OT-1 cells; OT-1 cells per ml of blood at day 5, Cbl inhibitor or Cbl inhibitor plus IL-2): significantly more rapid recall response | Unique CDR3s (breast TIL): Unique CDR3s increased

Reference: US12121540B2, “CBL inhibitors and compositions for use in adoptive cell therapy” (Nurix Therapeutics, Inc., priority 2019, dated 2024)
